The text below walks through data of publication PMC4632246 (Analytical biochemistry, 2012).

Format in all cases: binding
For assay [1], the target named is Hsp90α-NT (human Hsp90α immobilized via the N-terminal) (Homo sapiens, UniProt P07900). As to the kind of experiment: Frontal chromatography on Hsp90α-NT column. As to conditions: for Bmax: Hsp90α-NT column, frontal chromatography, number of active binding sites, ±SE.
The target in assay [2] is Hsp90α-CT (human Hsp90α immobilized via the C-terminal) (Homo sapiens, UniProt P07900). In words: Frontal chromatography on Hsp90α-CT column. As to conditions: for Bmax: Hsp90α-CT column, frontal chromatography, number of active binding sites, ±SE.
The target of assay [3] is Hsp90α-NT (middle domain of Hsp90α) (Homo sapiens, UniProt P07900). In words: Competition studies of eNOS and CEP on Hsp90α-NT column. As to conditions: eNOS added to the mobile phase.

As a reminder, the Kd is the equilibrium constant for the complex coming apart. The low end stands for higher affinity, the high end for lower affinity. In the case of `COc1cc2c3c(c1OC)Oc1ccc(cc1)C[C@@H]1c4c(cc(OC)c(OC)c4Oc4ccc(cc4)C[C@H]3N(C)CC2)CCN1C` [Cycleanine, cycleanine], in assay [1], the Kd is 159 ± 23.2 µM and the Bmax was 37.3 ± 2.5 nmol. In assay [2], this molecule yielded a Kd of 143 ± 36.6 µM and a Bmax of 578 ± 110 nmol.
Regarding isotetrandrine, the Bmax in assay [1] worked out at 54.7 ± 6.3 nmol; in assay [2], 250 ± 29.7 nmol.
On the same counts, the results for berbamine are 36.5 ± 3.3 nmol and 89.7 ± 17.1 nmol.
With `COc1ccc2cc1Oc1ccc(cc1)C[C@H]1c3c(cc4c(c3Oc3cc5c(cc3OC)CCN(C)[C@@H]5C2)OCO4)CCN1C` [Cepharanthine, cepharanthine], in assay [1], the Kd was determined as 5.3 ± 1.3 µM and the Bmax came to 19.8 ± 3.1 nmol. In assay [2], this molecule showed a Kd of 6.3 ± 1.7 µM and a Bmax of 56.9 ± 7.2 nmol. Further, in assay [3], the “retention factors of CEP with an increase in eNOS concentrations” value was “decreased”.
